Test results taken from patent publication US8815219B2, “Sunless tanning with pyranones and furanones” (Conopco, Inc., priority 2009, dated 2014).

Assays:
[1] = Dissolution of Allomaltol in the aqueous composition; assay type: physicochemical; conditions: 3 wt.% Allomatol in 5% DHA, 5% glycine, balance water (Example 3 Sample 5)
Source text: (§1) Compositions comprising Allomaltol were made by mixing the following: […]

[2] = Visual observation and photographs of tanning rate (color formation) in DHA/glycine compositions; conditions: Allomaltol 0.5-3 wt.% added to 5% DHA, 5% glycine in water; visual observations and photographs
Source text: as §1

[3] = Color development of DHA/glycine compositions by spectrophotometer at 400 nm; conditions: for enhancement in tanning: Example 6, conclusion from 6 and 27 hour results, DHA 5%, glycine 5%
Experimental: Color development for the above was also assessed using a spectrophotometer set at a wavelength of 400 nm. […] Compositions comprising KOjic acid or Allomaltol were made by mixing the following ingredients at room temperature. […] Visual observation and photographs were taken after 27 hours of mixing. […] 35%, 38% and 19%, respectively, as determined by assessing the Samples with a Spectrophotometer, wavelength 400 nm. […] Compositions were made by mixing the following ingredients at room temperatures. […] All percents are by weight. The Samples were assessed for color development (with a Spectrophometer, 400 nm wavelength) three (3) days after mixing. […] The following compositions were mixed in a manner similar to the one described in Example 7. The Samples were assessed (with a Spectrophotometer, 400 nm wavelength) fifteen (15) hours after mixing.

[4] = 400 nm, after 20 hours of mixing, 5% DHA, 5% glycine

SMILES: Cc1cc(=O)c(O)co1 [Allomaltol, 3-hydroxy-6-methyl, 4-pyrone]
- Allomatol dissolved [1]: ***= circa 95% Allomatol was dissolved.
- tanning rate (color formation) [2]: enhanced
- color development at 3% Allomaltol greater than at 0.5% Allomaltol [3, 4]: 45%
- color development at 3% Allomaltol greater than at 1% Allomaltol [3, 4]: 40%
- color development at 3% Allomaltol greater than at 2% Allomaltol [3, 4]: 20%
- color development at 3% Allomaltol greater than composition deplete of adjuvant [3, 4]: 60%
- enhancement in tanning [3]: enhancement in tanning

SMILES: O=c1cc(CO)occ1O [Kojic acid]
- enhancement in tanning [3]: enhancement in tanning

SMILES: Cc1cc(=O)c(NCC(=O)O)co1 [adjuvant]
- color body generation with glycine and no DHA ([3]; Example 8, 0.5% adjuvant, 5% glycine, fifteen hours after mixing): No color body generation

SMILES: O=c1cc(CCl)occ1O [chlorinated adjuvant]
- color body generation with glycine and no DHA ([3]; Example 7, 0.25% chlorinated adjuvant, 5% glycine, three days after mixing): No color body generation
